From ChEMBL document CHEMBL1128683, “Identification of 3,5-dihydro-2-aryl-1H-pyrazolo[3,4-c]quinoline-1,4(2H)-diones as novel high-affinity glycine site N-methyl-D-aspartate antagonists” (J Med Chem, 1995)

target: Glutamate receptor ionotropic, NMDA 1 (Rattus norvegicus, UniProt P35439); assay: Inhibition of [3H]-3 binding to the glycine site on the NMDA receptor in Rat cortical membranes

Point of comparison: `Cn1[nH]c2c(=O)[nH]c3ccccc3c2c1=O`, IC50 2020 nM. Against it:
- O=c1[nH]c2ccccc2c2c(=O)n(-c3ccc(Cl)cc3)[nH]c12 — 15-fold lower, 138 nM
- COc1ccc(-n2[nH]c3c(=O)[nH]c4ccccc4c3c2=O)cc1 — 23-fold lower, 87 nM
- O=c1[nH]c2ccccc2c2c(=O)n(-c3ccccc3)[nH]c12 — 15-fold lower, 135 nM
- O=c1[nH]c2ccccc2c2c(=O)n(Cc3ccccc3)[nH]c12 — 3.6-fold lower, 562 nM
- O=c1[nH]c2ccccc2c2c(=O)n(-c3ccccc3Cl)[nH]c12 — 3.3-fold lower, 613 nM
- Cn1c2c(=O)[nH]c3ccccc3c2c(=O)n1-c1ccccc1 — not separable, > 100 nM
- O=c1[nH]c2cc(Cl)ccc2c2c(=O)n(-c3ccccc3)[nH]c12 — 130-fold lower, 16 nM
- COc1ccc(-n2[nH]c3c(=O)[nH]c4cc(Cl)ccc4c3c2=O)cc1 — 610-fold lower, 3.3 nM
- O=c1[nH]c2ccccc2c2c(=O)n(-c3cccc(Cl)c3)[nH]c12 — 12-fold lower, 162 nM
